In one experiment the test system is A549 cells. The experiment is described as follows: PD assay (Assay 2): inhibition of nuclear symmetric Arginine dimethylation (SYM10 immunohistochemistry) in A549 cells. The note with it: individual measurements shown; for IC50: Homo sapiens, A549, PD assay in A549 cells, read-out: pIC50 Assay 2 (converted); for pIC50 Assay 2: PD assay in A549 cells. It counts as cell-based. Summed up:
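A549 cells dosed with a nine-point series (0.2% DMSO) for 48 h at 37° C, then fixed and immunostained with SYM10 anti-symmetric-dimethylarginine antibody, plus Hoechst and CellMask counterstains for high-content imaging. Nuclear signal normalized between DMSO and 10 μM reference-compound controls to derive IC50/pIC50.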

The target in the next experiment is T1, PRMT5-MEP50 enzyme (Homo sapiens, UniProt O14744).
T1 construct: One virus expresses full length human PRMT5 with Flag-tag at N-terminus
T1 sequence (O14744 whole entry): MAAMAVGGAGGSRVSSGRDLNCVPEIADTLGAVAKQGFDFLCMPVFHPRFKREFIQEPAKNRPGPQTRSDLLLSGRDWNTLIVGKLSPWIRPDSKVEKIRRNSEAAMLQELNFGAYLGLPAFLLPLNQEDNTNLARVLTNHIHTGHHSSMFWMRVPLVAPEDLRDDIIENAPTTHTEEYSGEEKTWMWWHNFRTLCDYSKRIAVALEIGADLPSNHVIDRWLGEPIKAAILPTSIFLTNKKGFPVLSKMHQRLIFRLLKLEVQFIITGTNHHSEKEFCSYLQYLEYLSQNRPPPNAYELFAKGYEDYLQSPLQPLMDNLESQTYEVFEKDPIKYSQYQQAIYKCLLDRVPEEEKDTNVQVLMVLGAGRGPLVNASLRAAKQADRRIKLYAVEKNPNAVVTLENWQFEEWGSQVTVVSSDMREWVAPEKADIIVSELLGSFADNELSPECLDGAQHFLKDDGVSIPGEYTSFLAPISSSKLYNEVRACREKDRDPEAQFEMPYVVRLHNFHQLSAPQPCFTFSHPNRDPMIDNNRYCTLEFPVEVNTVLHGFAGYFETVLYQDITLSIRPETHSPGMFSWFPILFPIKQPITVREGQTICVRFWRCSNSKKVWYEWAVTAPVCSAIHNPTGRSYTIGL
T1 sequence (Q9BQA1 whole entry partner): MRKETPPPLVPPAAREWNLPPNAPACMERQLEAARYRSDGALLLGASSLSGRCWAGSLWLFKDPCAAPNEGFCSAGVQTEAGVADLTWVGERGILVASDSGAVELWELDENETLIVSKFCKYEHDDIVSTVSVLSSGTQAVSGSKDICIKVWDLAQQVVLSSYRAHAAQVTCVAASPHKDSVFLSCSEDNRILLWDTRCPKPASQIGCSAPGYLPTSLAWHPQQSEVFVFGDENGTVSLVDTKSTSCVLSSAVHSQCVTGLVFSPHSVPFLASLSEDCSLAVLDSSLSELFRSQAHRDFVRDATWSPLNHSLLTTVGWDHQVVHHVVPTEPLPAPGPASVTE
The experiment is described as follows: In vitro assay (Assay 1): PRMT5-MEP50 high throughput mass spectrometer assay, inhibition of SAH formation. The class given is biochemical. The note with it: individual measurements shown; for IC50: read-out: pIC50 Assay 1 (converted). Summed up: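 Flag-PRMT5/His-MEP50 full-length human complex (Sf9-expressed), 10 nM, with 1 μM SAM and 0.3 μM histone H2A in 20 mM Tris-HCl pH 8.5, 50 mM NaCl, 5 mM MgCl2, 1 mM DTT; 60 min at 30 °C, quenched with 1% formic acid. SAH quantified by RapidFire MS; IC50 from 11-point 1:2 series fitted to four-parameter Hill equation.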

Molecules are shown by their SMILES. Values joined by “and” are separate entries in the source; they are usually repeats but may differ in a detail not shown here. Identical values can stand only once.

Take `N#CCN1CCC2(CC1)CC(F)(F)CN2C[C@H]1O[C@@H](c2ccc3c(N)ncnn23)[C@H](O)[C@@H]1O` [Compound 144]: the IC50 in the experiment on A549 cells was approximately 933 nM; at PRMT5-MEP50 enzyme it was 447 nM.
As for `Nc1ncnn2c([C@@H]3O[C@H](CN4CC(F)(F)CC45CCN(CC(F)(F)F)CC5)[C@@H](O)[C@H]3O)ccc12` [Compound 145], the IC50 in the experiment with A549 cells and on PRMT5-MEP50 enzyme was more than 10000 nM in each case.
Take `CCN1CCC2(CC1)CC(F)(F)CN2C[C@H]1O[C@@H](c2ccc3c(N)ncnn23)[C@H](O)[C@@H]1O` [Compound 146]: the IC50 in the experiment on A549 cells was 4680 nM; on PRMT5-MEP50 enzyme, 3980 nM.
`CN1CCC2(CC1)CC(F)(F)CN2C[C@H]1O[C@@H](c2ccc3c(N)ncnn23)[C@H](O)[C@@H]1O` [Compound 147]: the IC50 in the experiment on A549 cells was 603 nM; on PRMT5-MEP50 enzyme, 186 nM.
Take `CN(C)CC[C@@H]1CCCN1C[C@H]1O[C@@H](c2ccc3c(N)ncnn23)[C@H](O)[C@@H]1O` [Compound 148]: the IC50 in the experiment with A549 cells is more than 10000 nM; at PRMT5-MEP50 enzyme it was 1260 nM.
The matching figures for `Nc1ncnn2c([C@@H]3O[C@H](CN4CCC[C@H]4CCN4CCOCC4)[C@@H](O)[C@H]3O)ccc12` [Compound 150]: more than 10000 nM and more than 10000 nM.
For the molecule `CN(C)C[C@@H]1CC(F)(F)CN1C[C@H]1O[C@@H](c2ccc3c(N)ncnn23)[C@H](O)[C@@H]1O` [Compound 151], the results for the IC50 in the experiment on A549 cells and on PRMT5-MEP50 enzyme were approximately 6170 nM and 5500 nM, respectively.
As for `CN(C)CC[C@@H]1CC(F)(F)CN1C[C@H]1O[C@@H](c2ccc3c(N)ncnn23)[C@H](O)[C@@H]1O` [Compound 152], the values for the IC50 in the experiment with A549 cells and on PRMT5-MEP50 enzyme were 4070 nM and 2950 nM, respectively.
`Nc1ncnn2c([C@@H]3O[C@H](CN4CC(F)(F)C[C@H]4CCN4CCOCC4)[C@@H](O)[C@H]3O)ccc12` [Compound 154]: the IC50 in the experiment on A549 cells and on PRMT5-MEP50 enzyme was more than 10000 nM each time.
As for `Nc1ncnn2c([C@@H]3O[C@H](CN4CC(F)(F)C[C@H]4CCN4CCCC4)[C@@H](O)[C@H]3O)ccc12` [Compound 155], the IC50 was more than 10000 nM in the experiment with A549 cells and 2510 nM at PRMT5-MEP50 enzyme.
Taken in the same sequence, the figures for `NCC[C@@H]1CC(F)(F)CN1C[C@H]1O[C@@H](c2ccc3c(N)ncnn23)[C@H](O)[C@@H]1O` [Compound 156] were 1050 nM and 26.3 nM.
For the molecule `CN(C)C[C@@H]1CC(F)(F)CCN1C[C@H]1O[C@@H](c2ccc3c(N)ncnn23)[C@H](O)[C@@H]1O` [Compound 157], the IC50 in the experiment on A549 cells is more than 20000 nM; on PRMT5-MEP50 enzyme, more than 10000 nM.
In the case of `Nc1ncnn2c([C@@H]3O[C@H](CN4CCC(F)(F)C[C@H]4CN4CCCC4)[C@@H](O)[C@H]3O)ccc12` [Compound 159], the IC50 with A549 cells is more than 20000 nM; on PRMT5-MEP50 enzyme, more than 10000 nM.
For the molecule `NC[C@@H]1CC(F)(F)CCN1C[C@H]1O[C@@H](c2ccc3c(N)ncnn23)[C@H](O)[C@@H]1O` [Compound 160], the IC50 is more than 20000 nM in the experiment on A549 cells and 2690 nM on PRMT5-MEP50 enzyme.
`Nc1ncnn2c([C@@H]3O[C@H](C(=O)N4CCCC45CCNCC5)[C@@H](O)[C@H]3O)ccc12` [Compound 161]: the IC50 in the experiment on A549 cells is 4170 nM; on PRMT5-MEP50 enzyme, 380 nM.
With `CN(C)CC[C@@H]1CC(F)(F)CN1C(=O)[C@H]1O[C@@H](c2ccc3c(N)ncnn23)[C@H](O)[C@@H]1O` [Compound 162], the IC50 in the experiment on A549 cells was more than 20000 nM; on PRMT5-MEP50 enzyme, 3800 nM.
Regarding `Nc1ncnc2c1ccn2[C@@H]1C[C@H](C(=O)N2CCCC23CCNCC3)[C@@H](O)[C@H]1O` [Compound 163], the values for the IC50 in the experiment with A549 cells and on PRMT5-MEP50 enzyme were 126 nM and 8.51 nM, respectively.
On to `CC(C)C(=O)O[C@@H]1[C@@H](CN2CC(F)(F)CC23CCNCC3)C[C@@H](n2ccc3c(N)ncnc32)[C@@H]1OC(=O)C(C)C` [Compound 164], for which the figures for the IC50 with A549 cells and at PRMT5-MEP50 enzyme were approximately 6460 nM and more than 10000 nM, respectively.
`Nc1ncnn2c([C@@H]3O[C@H](CN4CCC45CCNCC5)[C@@H](O)[C@H]3O)ccc12` [Compound 165]: the IC50 in the experiment on A549 cells is more than 10000 nM; at PRMT5-MEP50 enzyme, 871 nM.
For `Nc1ncnc2c1ccn2[C@@H]1C[C@H](CC2=CCCC23CCNCC3)[C@@H](O)[C@H]1O` [Compound 166], the “pIC50 Assay 2” value in the experiment on A549 cells was 7.41 and 7.92 and 7.87. In addition, the IC50 at PRMT5-MEP50 enzyme was 1.86 nM and 1.58 nM and 0.631 nM.
On to `Nc1ncnc2c1ccn2[C@@H]1C[C@H](/C=C2\CCCC23CCNCC3)[C@@H](O)[C@H]1O` [Compound 167], for which, in the experiment on A549 cells, the IC50 was 30.2 nM and the “pIC50 Assay 2” value was 7.68. Further, the IC50 at PRMT5-MEP50 enzyme was 3.16 nM and 1.58 nM.
With `CN1CCC2(CCCN2C[C@H]2O[C@@H](n3ccc4c(N)ncnc43)[C@H](O)[C@@H]2O)CC1` [Compound 168], in the experiment on A549 cells, the IC50 was 204 nM; the “pIC50 Assay 2” value is ~6.64 and ~6.7. Also, the IC50 on PRMT5-MEP50 enzyme is 26.3 nM and 17.4 nM and 8.51 nM.
In the case of `Nc1ncnc2c1ccn2[C@@H]1O[C@H](CN2CCCC23CCN(CCC(F)(F)F)CC3)[C@@H](O)[C@H]1O` [Compound 169], the IC50 in the experiment on A549 cells was 603 nM; on PRMT5-MEP50 enzyme it was 275 nM.
`Nc1ncnc2c1ccn2[C@@H]1O[C@H](CN2CCCC23CCN(CCc2ccc(F)cc2)CC3)[C@@H](O)[C@H]1O` [Compound 170]: the IC50 was approximately 148 nM in the experiment with A549 cells and 42.7 nM on PRMT5-MEP50 enzyme.
Take `Nc1ncnc2c1ccn2[C@@H]1O[C@H](CN2CCCC23CCN(Cc2ccc(F)cc2)CC3)[C@@H](O)[C@H]1O` [Compound 171]: the values for the IC50 in the experiment on A549 cells and at PRMT5-MEP50 enzyme were approximately 4070 nM and 1620 nM, respectively.
Regarding `Nc1ncnc2c1ccn2[C@@H]1O[C@H](CN2CCCC23CCN(Cc2cccnc2)CC3)[C@@H](O)[C@H]1O` [Compound 172], the IC50 was approximately 912 nM in the experiment with A549 cells and 309 nM at PRMT5-MEP50 enzyme.
For `Nc1ncnc2c1ccn2[C@@H]1O[C@H](CN2CCCC23CCN(CCOc2ccc(F)cc2)CC3)[C@@H](O)[C@H]1O` [Compound 173], the values for the IC50 in the experiment on A549 cells and on PRMT5-MEP50 enzyme were 776 nM and 347 nM, respectively.
Take `Nc1ncnc2c1ccn2[C@@H]1O[C@H](CN2CCCC23CCN(C2CC2)CC3)[C@@H](O)[C@H]1O` [Compound 174]: the IC50 with A549 cells was approximately 2290 nM; at PRMT5-MEP50 enzyme, 501 nM.
Consider `Nc1ncnc2c1ccn2[C@@H]1O[C@H](CN2CCCC23CCN(Cc2ccoc2)CC3)[C@@H](O)[C@H]1O` [Compound 175], for which the IC50 was 1410 nM in the experiment on A549 cells and 589 nM at PRMT5-MEP50 enzyme.
For `Cc1nc(CN2CCC3(CCCN3C[C@H]3O[C@@H](n4ccc5c(N)ncnc54)[C@H](O)[C@@H]3O)CC2)cs1` [Compound 176], the results for the IC50 in the experiment with A549 cells and at PRMT5-MEP50 enzyme were 6030 nM and 1120 nM, respectively.
As to `Nc1ncnc2c1ccn2[C@@H]1O[C@H](CN2CCCC23CCN(Cc2nc4ccccc4[nH]2)CC3)[C@@H](O)[C@H]1O` [Compound 177], the IC50 in the experiment with A549 cells was 457 nM; at PRMT5-MEP50 enzyme, 191 nM.
As to `CN1CCC2(CCCN2C[C@H]2O[C@@H](n3cc(F)c4c(N)ncnc43)[C@H](O)[C@@H]2O)CC1` [Compound 178], the IC50 in the experiment with A549 cells was 120 nM; on PRMT5-MEP50 enzyme, 51.3 nM.
As to `CN1CCC2(CCCN2C[C@H]2O[C@@H](n3cc(Br)c4c(N)ncnc43)[C@H](O)[C@@H]2O)CC1` [Compound 179], the IC50 in the experiment on A549 cells was 95.5 nM; on PRMT5-MEP50 enzyme, 31.6 nM.
On to `CN1CCC2(CCCN2C[C@H]2O[C@@H](n3cc(I)c4c(N)ncnc43)[C@H](O)[C@@H]2O)CC1` [Compound 180], for which the IC50 with A549 cells is 269 nM; on PRMT5-MEP50 enzyme, 10.2 nM.
Taken in the same sequence, the figures for `CN1CCC2(CC1)CC(F)(F)CN2C[C@H]1O[C@@H](n2ccc3c(N)ncnc32)[C@H](O)[C@@H]1O` [Compound 181] were 66.1 nM and 19.5 nM.
On to `CCN1CCC2(CC1)CC(F)(F)CN2C[C@H]1O[C@@H](n2ccc3c(N)ncnc32)[C@H](O)[C@@H]1O` [Compound 182], for which the IC50 in the experiment on A549 cells is 501 nM; on PRMT5-MEP50 enzyme, 15.5 nM.
Regarding `Nc1ncnc2c1ccn2[C@@H]1O[C@H](CN2CC(F)(F)CC23CCN(CCc2ccc(F)cc2)CC3)[C@@H](O)[C@H]1O` [Compound 183], the IC50 with A549 cells is approximately 240 nM; on PRMT5-MEP50 enzyme, 22.4 nM.
On to `CC(C)CCN1CCC2(CC1)CC(F)(F)CN2C[C@H]1O[C@@H](n2ccc3c(N)ncnc32)[C@H](O)[C@@H]1O` [Compound 184], for which the figures for the IC50 with A549 cells and at PRMT5-MEP50 enzyme were approximately 1480 nM and 67.6 nM, respectively.
Regarding `Nc1ncnc2c1ccn2[C@@H]1O[C@H](CN2CC(F)(F)CC23CCN(CCC2CC2)CC3)[C@@H](O)[C@H]1O` [Compound 185], the values for the IC50 with A549 cells and at PRMT5-MEP50 enzyme were 589 nM and 25.1 nM, respectively.
The matching figures for `CN1CCC2(CCCN(C[C@H]3O[C@@H](n4ccc5c(N)ncnc54)[C@H](O)[C@@H]3O)C2)C1` (some centres unmarked) [Compound 186]: 617 nM and 13.5 nM.
In the case of `CN(C)CC[C@@H]1CCCN1C[C@H]1O[C@@H](n2ccc3c(N)ncnc32)[C@H](O)[C@@H]1O` [Compound 187], the IC50 with A549 cells is 1700 nM; at PRMT5-MEP50 enzyme, 63.1 nM.
For the molecule `CN1CCC2(CC1)CC(F)(F)CN2C[C@H]1O[C@@H](n2ccc3c(Cl)ncnc32)[C@H](O)[C@@H]1O` [Compound 188], the IC50 with A549 cells was 708 nM; at PRMT5-MEP50 enzyme it was 372 nM.
As for `CN1CCC2(CCCN2C[C@H]2O[C@@H](n3cnc4cncnc43)[C@H](O)[C@@H]2O)CC1` [Compound 191], the IC50 in the experiment with A549 cells is more than 10000 nM. Also, the “pIC50 Assay 1” value against PRMT5-MEP50 enzyme was determined as 5.04.
Take `N#CCN1CCC2(CCCN2C[C@H]2O[C@@H](n3ccc4c(N)ncnc43)[C@H](O)[C@@H]2O)CC1` [Compound 192]: the IC50 in the experiment on A549 cells was 83.2 nM; on PRMT5-MEP50 enzyme, 69.2 nM.
Turning to `N#CCCN1CCC2(CCCN2C[C@H]2O[C@@H](n3ccc4c(N)ncnc43)[C@H](O)[C@@H]2O)CC1` [Compound 193], the IC50 was 468 nM in the experiment on A549 cells and 186 nM at PRMT5-MEP50 enzyme.

Source of the values: patent publication US10898504B2, “Substituted nucleoside analogues for use as PRMT5 inhibitors” (Janssen Pharmaceutica NV, priority 2016, dated 2021).
